# Measured values: patent US11680047B2, “Enhanced erythropoiesis and iron metabolism” (FibroGen, Inc., priority 2003, dated 2023)
# What was measured:
# [1] = test system: NRAMP2; assay: Intestinal NRAMP2 mRNA in rats of ACD Series 2 (microarray); format: in vivo, rat
# Protocol: At week 6 following administration of compound A in anemic animals (40 mg/kg, twice a week), microarray analysis was performed to examine expression of genes encoding proteins involved with iron transport and absorption in intestine. Microarray analysis was performed using methods described above, using The Rat Genome 230A array (Affymetirx), which represents all sequence in the Rat Unigene database build 99 (National Center for Biotechnology Information, Bethesda, Md.), including approximately 4,699 well-characterized rat genes and approximately 10,467 EST sequences and approximately 700 non-EST sequences.
# [2] = test system: Hepcidin; assay: Hepcidin mRNA expression in mouse liver (microarray); format: in vivo
# Protocol: Compounds were generally administered orally by gavage or IV administration. Animals treated by oral gavage received a 4-10 ml/kg volume of either 0.5% carboxymethyl cellulose (CMC; Sigma-Aldrich, St. Louis Mo.) with or without 0.1% Polysorbate 80 (0 mg/kg/day) or varying doses of a compound of the present invention (e.g., a HIF prolyl hydroxylase inhibitor) in 0.5% CMC, with or without 0.1% Polysorbate 80, using various dosing regimens. Blood samples were collected at appropriate intervals during treatment from, e.g., tail vein (rats), or abdominal vein or cardiocentesis (mice or rats). Generally, animals were anesthetized with isoflurane and blood samples were collected into MICROTAINER serum separator tubes (Becton-Dickinson, Franklin Lakes N.J.). For measurement of serum components, the tubes were incubated at room temperature for 30 minutes, and then centrifuged at 8,000 rpm at 4° C. for 10 minutes. The serum fraction was then processed and analyzed for the presence of specific components, e.g., serum iron (assay performed by Quality Clinical Labs, Mountain View, Calif.). For determination of hematocrit, blood samples were collected into MICROTAINER EDTA-2K tubes (Becton-Dickinson); EDTA-blood was then drawn into 75 mm×1.1-1.2 mm I.D. capillary tubes (Chase Scientific Glass, Inc., Rockwood Tenn.) to approximately % length, one end of the tube was sealed with CRITOSEAL sealant (Sherwood Medical Company), and the tubes were centrifuged in a J-503M MICROHEMATOCRIT centrifuge (Jorgensen Laboratories, Inc., Loveland Colo.) at 12,000 rpm for 5 minutes. Hematocrit was read against a reader card. When indicated, complete blood count (CBC) analysis, including blood hemoglobin level, reticulocyte number, and hematocrit, was performed by Quality Clinical Labs (Mountain View, Calif.).
# Swiss Webster male mice were treated as described above with a single dose of 0.5% CMC (Sigma-Aldrich) (0 mg/kg) or 100 mg/kg compound A. At 4, 8, 16, 24, 48, or 72 hours post-administration, animals were anesthetized, sacrificed, and tissue samples of kidney, liver, brain, lung, and heart were isolated and stored in RNALATER solution (Ambion) at −80° C. Alternatively, animals were treated to 4 consecutive daily doses of 0.5% CMC (0 mg/kg/day), 7.5 mg/ml compound A in 0.5% CMC (30 mg/kg/day), or 25 mg/ml compound A in 0.5% CMC (100 mg/kg/day). Four hours after administration of the final dose, animals were anesthetized, sacrificed, and approximately 150 mg of liver and each kidney were isolated and stored in RNALATER solution (Ambion) at −20° C.
# RNA isolation was carried out using the following protocol. A section of each organ was diced, 875 μl of RLT buffer (RNEASY kit; Qiagen Inc., Valencia Calif.) was added, and the pieces were homogenized for about 20 seconds using a rotor-stator POLYTRON homogenizer (Kinematica, Inc., Cincinnati Ohio). The homogenate was micro-centrifuged for 3 minutes to pellet insoluble material, the supernatant was transferred to a new tube and RNA was isolated using an RNEASY kit (Qiagen) according to the manufacturer's instructions. The RNA was eluted into 80 μL of water and quantitated with RIBOGREEN reagent (Molecular Probes, Eugene Oreg.). The absorbance at 260 and 280 nm was measured to determine RNA purity and concentration.
# Alternatively, tissue samples were diced and homogenized in TRIZOL reagent (Invitrogen Life Technologies, Carlsbad Calif.) using a rotor-stator POLYTRON homogenizer (Kinematica). Homogenates were brought to room temperature, 0.2 volumes chloroform was added, and samples were mixed vigorously. Mixtures were incubated at room temperature for several minutes and then were centrifuged at 12,000 g for 15 min at 4° C. The aqueous phase was collected and 0.5 volumes of isopropanol were added. Samples were mixed, incubated at room temperature for 10 minutes, and centrifuged for 10 min at 12,000 g at 4° C. […]
# [3] = test system: E-selectin; assay: Cell surface E-selectin (cell-based ELISA) in HUVEC pretreated with compound, then cytokines; design: species or system human; details: HUVEC pretreated 24 hours
# Protocol: HUVEC were treated with vehicle control or various concentrations of compound B or compound C for 24 hours. Cells were washed and then stimulated with either 1 ng/ml TNF-α, 1 ng/ml IL-1β, or a combination of 1 ng/ml each of TNF-α, IL-1β, and IFN-γ for 4 hours. Cell surface expression of E-selectin was measured by cell-based ELISA.
# [4] = test system: VCAM-1; assay: TNF-α induced VCAM-1 expression in HUVEC; format: cell-based, human; details: TNF-α 1 ng/ml, 1 day
# Text: Endothelial cell adhesiveness for lymphocytes occurs, in part, by endothelial cell expression of vascular cell adhesion molecule (VCAM)-1. VCAM-1 expression in endothelial cells is induced by various inflammatory cytokines, such as TNF-α. To investigate the effect of HIF prolyl hydroxylase inhibition on TNF-α induced VCAM-1 expression, HUVEC (human umbilical vein endothelial cells) were stimulated with TNF-α in the absence or presence of various concentrations of compound B or compound C for 1 day. VCAM expression was then measured.
# Endothelial E-selectin belongs to the selectin family of cellular adhesion molecules mediating the initial attachment of leukocytes to vascular endothelial cells in inflammatory events. IL-1β, TNF-α, and lipopolysaccharides each induce the expression of E-selectin. (See, e.g., Bevilacqua et al. (1987) Proc Natl Acad Sci USA 84:9238-9242 and Bevilacqua and van Furth (1993) J Leukoc Biol 54:363-378.) To investigate the effect of HIF prolyl hydroxylase inhibition on TNF-α induced E-selectin expression, HUVECs were stimulated with 1 ng/ml TNF-α in the absence or presence of various concentrations of compound B or compound C for 1 day. E-selectin and VCAM expression were then measured.
# [5] = test system: E-selectin; assay: IL-1β induced E-selectin expression in HUVEC; format: cell-based, human; details: 1 ng/ml IL-1β, 1 day
# Protocol: To investigate the effect of HIF prolyl hydroxylase inhibition on IL-1β induced E-selectin expression, HUVECs were stimulated with 1 ng/ml IL-1β in the absence or presence of various concentrations of compound B or compound C for 1 day. E-selectin expression was then measured.
SMILES,"intestinal expression of NRAMP2 ([1]; anemic rats, 40 mg/kg twice a week, week 6)",intestinal expression of mRNA for NRAMP2 ([1]; control rats),"Hepcidin (relative mRNA levels) ([2]; animal study I, multi high dose)","Hepcidin (relative mRNA levels) ([2]; animal study II, multi high dose)","Hepcidin (relative mRNA levels) ([2]; animal study II, multi low dose)","Hepcidin (relative mRNA levels) ([2]; animal study III, 4 hour)","Hepcidin (relative mRNA levels) ([2]; animal study III, 8 hour)","Hepcidin (relative mRNA levels) ([2]; animal study III, 16 hour)",induction of cell surface E-selectin expression ([3]; then 1 ng/ml TNF-α or 1 ng/ml IL-1β for 4 hours),"cell surface E-selectin expression ([3]; then TNF-α, IL-1β and IFN-γ, 1 ng/ml each, 4 hours)",inhibition of TNF-α induced VCAM-1 expression [4],inhibition of IL-1β induced E-selectin expression [5]
"O=C(O)CNC(=O)c1nc(Cl)c2ccccc2c1O [Compound A, [(1-Chloro-4-hydroxy-isoquinoline-3-carbonyl)-amino]-acetic acid]",increased expression of both NRAMP2 and sproutin in intestine,increased intestinal expression of mRNA for NRAMP2,0.275,0.703,0.129,0.672,0.305,0.119,,,,
"O=C(O)CNC(=O)c1ncc2cc(Oc3ccccc3)ccc2c1O [Compound B, [(4-Hydroxy-7-phenoxy-isoquinoline-3-carbonyl)-amino]-acetic acid]",,,,,,,,,inhibited the induction of cell surface E-selectin expression,decreased E-selectin expression,does-dependent inhibition of TNF-α induced VCAM-1 expression,dose-dependent inhibition of IL-1β induced E-selectin expression
